In US9062041B2 (Bayer Intellectual Property GmbH, priority 2011, dated 2015):

How the values were obtained:
Type in all cases: cell-based
[1] = molecular target: EP2 subtype of the human PGE2 receptor (Homo sapiens, UniProt P43116); test: cAMP antagonism test on the human EP2 receptor (HTRF cAMP detection); settings: hEP2 receptor, read-out: Antagonism hEP2 IC50
Method in brief: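 Cells expressing human EP2 preincubated 20 min at RT with compound (0.8 nM–16.5 μM), then stimulated 60 min with PGE2 (3× solution 1.5 nM) in PBS-IBMX. After 20 min lysis, cAMP measured by competitive HTRF with cAMP-d2 and Eu cryptate anti-cAMP antibody (665/620 nm ratio).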

[2] = molecular target: T1, human PGD receptor (Homo sapiens, UniProt Q13258); test: cAMP antagonism test on the human prostaglandin D receptor (HTRF cAMP detection); settings: selectivity towards hDP, IC50 measured by cAMP antagonism test
T1 sequence (Q13258 1-359): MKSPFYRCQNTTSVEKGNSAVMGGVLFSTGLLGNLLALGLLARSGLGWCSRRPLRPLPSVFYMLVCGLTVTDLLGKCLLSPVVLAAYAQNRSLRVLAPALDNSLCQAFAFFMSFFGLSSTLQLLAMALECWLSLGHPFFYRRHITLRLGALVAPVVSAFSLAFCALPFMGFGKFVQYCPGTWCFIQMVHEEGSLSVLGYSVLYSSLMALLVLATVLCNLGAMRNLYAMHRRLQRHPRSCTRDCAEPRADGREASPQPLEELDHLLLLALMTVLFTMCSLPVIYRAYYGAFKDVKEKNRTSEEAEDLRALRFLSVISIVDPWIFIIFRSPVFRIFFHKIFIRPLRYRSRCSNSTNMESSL
Method in brief: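 Cells pre-mixed with cAMP-d2 were preincubated with compound (0.8 nM–16.5 μM) for 20 min at RT, then stimulated with 3× PGD2 solution (6 nM, in PBS-IBMX) for 30 min at RT. After lysis (20 min), HTRF read at 665/620 nm; antagonism seen as rise in FRET ratio.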

[3] = molecular target: EP4 subtype of the human PGE2 receptor (Homo sapiens, UniProt P35408); test: cAMP antagonism test on the human EP4 receptor (HTRF cAMP detection); settings: selectivity towards hEP4, IC50 measured by cAMP antagonism test
Chain of EP4 subtype of the human PGE2 receptor (P35408 whole entry): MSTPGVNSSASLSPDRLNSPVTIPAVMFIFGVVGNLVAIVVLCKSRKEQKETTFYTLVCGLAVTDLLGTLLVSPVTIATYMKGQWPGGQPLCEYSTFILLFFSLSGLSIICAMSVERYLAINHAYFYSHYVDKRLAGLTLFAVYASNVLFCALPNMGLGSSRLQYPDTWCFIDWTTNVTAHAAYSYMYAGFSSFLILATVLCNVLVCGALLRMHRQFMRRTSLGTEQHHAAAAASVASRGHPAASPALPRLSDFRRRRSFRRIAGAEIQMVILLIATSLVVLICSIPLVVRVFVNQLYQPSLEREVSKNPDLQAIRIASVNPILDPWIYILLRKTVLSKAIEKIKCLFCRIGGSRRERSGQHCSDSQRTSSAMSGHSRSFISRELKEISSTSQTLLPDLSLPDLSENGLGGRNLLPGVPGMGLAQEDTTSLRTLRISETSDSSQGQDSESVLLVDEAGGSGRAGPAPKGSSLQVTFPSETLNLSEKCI
Method in brief: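 Cells expressing human EP4 preincubated 20 min at RT with compound (0.8 nM–16.5 μM), then stimulated with PGE2 (0.3 nM in 3× solution, with IBMX) 60 min at RT. After lysis, cAMP measured by HTRF competition (665/620 nm ratio); antagonism seen as rise in FRET signal.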

Chain of EP2 subtype of the human PGE2 receptor (P43116 whole entry): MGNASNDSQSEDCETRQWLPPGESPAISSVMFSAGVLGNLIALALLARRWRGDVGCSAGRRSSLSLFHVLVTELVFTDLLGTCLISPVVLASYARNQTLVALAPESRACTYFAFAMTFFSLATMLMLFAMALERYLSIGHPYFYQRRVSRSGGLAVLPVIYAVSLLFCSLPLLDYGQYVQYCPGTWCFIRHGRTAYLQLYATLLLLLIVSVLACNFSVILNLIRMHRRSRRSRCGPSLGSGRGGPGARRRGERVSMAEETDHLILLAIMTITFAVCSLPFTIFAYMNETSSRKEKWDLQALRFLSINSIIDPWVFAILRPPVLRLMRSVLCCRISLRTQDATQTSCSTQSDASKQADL

IC50 [1]	Selectivity hEP2/hDP [2]	Selectivity hEP2/hEP4 [3]	SMILES
5.29 nM	xxx (xxx > 100)	xxx (xxx > 100)	COCCNC(=O)c1ccc2nn(CC3CCN(C(=O)c4ccc(SC(F)(F)F)cc4)CC3)cc2c1C [Example 57, N-(2-methoxyethyl)-4-methyl-2-[(1-{4-[(trifluoromethyl)sulphanyl]benzoyl}piperidin-4-yl)methyl]-2H-indazol-5-carboxamide]
76.2 nM	xxx (xxx > 100)	xxx (xxx > 100)	COc1ccc(-c2ccc(C(=O)N3CCC(Cn4cc5c(C)c(C(=O)NCC(F)(F)F)ccc5n4)CC3)cc2)cn1 [Example 322, 2-({1-[4-(6-methoxypyridin-3-yl)benzoyl]piperidin-4-yl}methyl)-4-methyl-N-(2,2,2-trifluoroethyl)-2H-indazol-5-carboxamide]
181 nM	xx (xx: 10-100)	xx (xx: 10-100)	Cc1c(C(=O)NCC(F)(F)F)ccc2nn(CC3CCN(C(=O)c4ccc(-c5ccc(Cl)cn5)cc4)CC3)cc12 [Example 317, 2-({1-[4-(5-chloropyridin-2-yl)benzoyl]piperidin-4-yl}methyl)-4-methyl-N-(2,2,2-trifluoroethyl)-2H-indazol-5-carboxamide]
29.3 nM	xxx (xxx > 100)	xxx (xxx > 100)	COc1ccc2c(c1)cc(C(=O)N1CC(Cn3cc4c(C)c(C(=O)NCC(F)(F)F)ccc4n3)C1)n2C [Example 168, 2-({1-[(5-methoxy-1-methyl-1H-indol-2-yl)carbonyl]azetidin-3-yl}methyl)-4-methyl-N-(2,2,2-trifluoroethyl)-2H-indazol-5-carboxamide]
55.3 nM	xxx (xxx > 100)	xxx (xxx > 100)	COC(C)CNC(=O)c1ccc2nn(CC3CN(C(=O)c4ccc(Cl)cc4)C3)cc2c1C (single isomer, unassigned) [Example 140, (S or R)-2-{[1-(4-chlorobenzoyl)azetidin-3-yl]methyl}-N-(2-methoxypropyl)-4-methyl-2H-indazol-5-carboxamide]
2.87 nM	xxx (xxx > 100)	xxx (xxx > 100)	COCCNC(=O)c1ccc2nn(CC3CN(C(=O)c4ccc(Oc5ccc(Cl)cc5)cc4)C3)cc2c1C [Example 166, 2-({1-[4-(4-chlorophenoxy)benzoyl]azetidin-3-yl}methyl)-N-(2-methoxyethyl)-4-methyl-2H-indazol-5-carboxamide]
9.53 nM	xxx (xxx > 100)	xxx (xxx > 100)	COCCNC(=O)c1ccc2nn(CC3CCN(C(=O)c4ccc(Oc5ccc(C#N)cc5)cc4)CC3)cc2c1C [Example 330, 2-({1-[4-(4-cyanophenoxy)benzoyl]piperidin-4-yl}methyl)-N-(2-methoxyethyl)-4-methyl-2H-indazol-5-carboxamide]
595 nM	xx (xx: 10-100)	xx (xx: 10-100)	Cc1c(C(=O)NCC(C)OCC2CC2)ccc2nn(CC3CCN(C(=O)c4ccc(Oc5ccc(F)cc5)cc4)CC3)cc12 (racemic) [Example 103, (+/−)-N-[2-(cyclo-propylmethoxy)-propyl]-2-({1-[4-(4-fluorophenoxy)-benzoyl]piperidin-4-yl}-methyl)-4-methyl-2H-indazol-5-carboxamide]
34.2 nM	xxx (xxx > 100)	xxx (xxx > 100)	COCCNC(=O)c1ccc2nn(CC3CCN(C(=O)c4ccc(C#N)cc4)CC3)cc2c1C [Example 33, 2-{[1-(4-cyano-benzoyl)piperidin-4-yl]methyl}-N-(2-methoxyethyl)-4-methyl-2H-indazol-5-carboxamide]
9.4 nM	xxx (xxx > 100)	xxx (xxx > 100)	Cc1c(C(=O)NCCOCC2CC2)ccc2nn(CC3CCN(C(=O)c4ccc(C5CC5)cc4)CC3)cc12 [Example 89, 2-{[1-(4-cyclopropyl-benzoyl)piperidin-4-yl]methyl}-N-[2-(cyclopropylmethoxy)ethyl]-4-methyl-2H-indazol-5-carboxamide]
69.2 nM	xxx (xxx > 100)	xxx (xxx > 100)	COCCNC(=O)c1ccc2nn(CC3CCN(C(=O)c4ccc(-c5ncco5)cc4)CC3)cc2c1C [Example 35, N-(2-methoxyethyl)-4-methyl-2-({1-[4-(oxazol-2-yl)-benzoyl]piperidin-4-yl}methyl)-2H-indazol-5-carboxamide]
27.4 nM	xxx (xxx > 100)	xxx (xxx > 100)	Cc1c(C(=O)NCC2COCCO2)ccc2nn(CC3CN(C(=O)c4ccc(Oc5ccc(F)cc5)cc4)C3)cc12 (racemic) [Example 148, (+/−)-N-(1,4-dioxan-2-ylmethyl)-2-({1-[4-(4-fluorophenoxy)benzoyl]azetidin-3-yl}methyl)-4-methyl-2H-indazol-5-carboxamide]
25.7 nM	xxx (xxx > 100)	xxx (xxx > 100)	COCCNC(=O)c1ccc2nn(CC3CCN(C(=O)c4ccc(-c5cncc(F)c5)cc4)CC3)cc2c1C [Example 386, 2-({1-[4-(5-fluoropyridin-3-yl)benzoyl]piperidin-4-yl}methyl)-N-(2-methoxy-ethyl)-4-methyl-2H-indazol-5-carboxamide]
16.1 nM	xxx (xxx > 100)	xxx (xxx > 100)	COCCNC(=O)c1ccc2nn(CC3CCN(C(=O)c4ccc(C(F)(F)F)cc4)CC3)cc2c1C [Example 23, N-(2-methoxyethyl)-4-methyl-2-({1-[4-(trifluoromethyl)-benzoyl]piperidin-4-yl}methyl)-2H-indazol-5-carboxamide]
1080 nM	xx (xx: 10-100)	xx (xx: 10-100)	Cc1c(C(=O)NCCN2CCOCC2)ccc2nn(CC3CCN(C(=O)c4ccc(C(F)(F)F)cc4F)CC3)cc12 [Example 58, 2-({1-[2-fluoro-4-(trifluoromethyl)benzoyl]piperidin-4-yl}methyl)-4-methyl-N-(2-morpholinoethyl)-2H-indazol-5-carboxamide]
10.3 nM	xxx (xxx > 100)	xxx (xxx > 100)	COCCNC(=O)c1ccc2nn(CC3CCN(C(=O)c4ccc5ccc(OC)cc5c4)CC3)cc2c1C [Example 344, N-(2-methoxyethyl)-2-{[1-(7-methoxy-2-naphthoyl)piperidin-4-yl]methyl}-4-methyl-2H-indazol-5-carboxamide]
28 nM	xxx (xxx > 100)	xxx (xxx > 100)	COCCNC(=O)c1ccc2nn(CC3CCN(C(=O)c4nc5ccccc5n4C)CC3)cc2c1C [Example 338, N-(2-methoxyethyl)-4-methyl-2-({1-[(1-methyl-1H-benzimidazol-2-yl)carbonyl]-piperidin-4-yl}methyl)-2H-indazol-5-carboxamide]
33.5 nM	xxx (xxx > 100)	xxx (xxx > 100)	COCCNC(=O)c1ccc2nn(CC3CCN(C(=O)c4ccc(Cl)cc4F)CC3)cc2c1OC [Example 271, 2-{[1-(4-chloro-2-fluorobenzoyl)piperidin-4-yl]methyl}-4-methoxy-N-(2-methoxyethyl)-2H-indazol-5-carboxamide]
102 nM	xxx (xxx > 100)	xxx (xxx > 100)	COCCNC(=O)c1ccc2nn(CC3CN(C(=O)c4ccc(Cl)cc4F)C3)cc2c1OC [Example 257, 2-{[1-(4-chloro-2-fluorobenzoyl)azetidin-3-yl]methyl}-4-methoxy-N-(2-methoxyethyl)-2H-indazol-5-carboxamide]
38.3 nM	xxx (xxx > 100)	xxx (xxx > 100)	COCCNC(=O)c1ccc2nn(CC3CCN(C(=O)c4ccc(Cl)cc4)CC3)cc2c1OCC(F)(F)F [Example 232, 2-{[1-(4-chlorobenzoyl)piperidin-4-yl]methyl}-N-(2-methoxyethyl)-4-(2,2,2-trifluoroethoxy)-2H-indazol-5-carboxamide]
19.5 nM	xxx (xxx > 100)	xxx (xxx > 100)	COCCNC(=O)c1cc2cn(CC3CCN(C(=O)c4ccc(S(F)(F)(F)(F)F)cc4)CC3)nc2cc1C [Example 210, N-(2-methoxyethyl)-6-methyl-2-({1-[4-(pentafluoro-λ^6-sulphanyl)benzoyl]-piperidin-4-yl}methyl)-2H-indazol-5-carboxamide]
